From BindingDB's records for doi:10.1021/cc100073a (Amgen, 2010)
Several values for one entry are separate records, joined by “and”; a condition that tells them apart may be missing. Equal entries are not always repeated.

Legend:
Assay in all cases: PHD Enzymatic Assay
[1] = molecular target: Egl nine homolog 1 (Homo sapiens, UniProt Q9GZT9)
Method: (§1) PHD1,2,3 activity was measured utilizing homogeneous time-resolved fluroescence energy transfer techology by detecting the trans-4-hydroxylatio of HIF-1alpha residue pro564 in biotin-hHIR-1alpha(558-574)(Biotin-DLEMLAPYIPMDDDFQL)peptide substrate resulting in a recognition by the Europium-tagged Von Hippel Lindau, Elongin B and Dlongin C heterotrimeric complex (VCB-Eu complex)

[2] = molecular target: Prolyl hydroxylase EGLN2 (Homo sapiens, UniProt Q96KS0)
Sequence of Prolyl hydroxylase EGLN2 (Q96KS0 whole entry): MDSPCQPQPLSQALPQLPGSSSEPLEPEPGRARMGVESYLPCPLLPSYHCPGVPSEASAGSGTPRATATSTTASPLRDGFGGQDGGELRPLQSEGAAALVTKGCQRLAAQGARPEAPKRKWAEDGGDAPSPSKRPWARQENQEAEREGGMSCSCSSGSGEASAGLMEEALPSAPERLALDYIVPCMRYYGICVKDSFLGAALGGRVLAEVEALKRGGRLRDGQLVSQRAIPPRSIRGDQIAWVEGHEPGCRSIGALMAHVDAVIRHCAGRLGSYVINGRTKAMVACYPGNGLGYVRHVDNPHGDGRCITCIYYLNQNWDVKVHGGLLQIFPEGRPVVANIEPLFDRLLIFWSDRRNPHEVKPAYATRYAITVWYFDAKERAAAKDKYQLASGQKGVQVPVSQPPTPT
Method: as §1

[3] = molecular target: Prolyl hydroxylase EGLN3 (Homo sapiens, UniProt Q9H6Z9)
Sequence of Prolyl hydroxylase EGLN3 (Q9H6Z9 whole entry): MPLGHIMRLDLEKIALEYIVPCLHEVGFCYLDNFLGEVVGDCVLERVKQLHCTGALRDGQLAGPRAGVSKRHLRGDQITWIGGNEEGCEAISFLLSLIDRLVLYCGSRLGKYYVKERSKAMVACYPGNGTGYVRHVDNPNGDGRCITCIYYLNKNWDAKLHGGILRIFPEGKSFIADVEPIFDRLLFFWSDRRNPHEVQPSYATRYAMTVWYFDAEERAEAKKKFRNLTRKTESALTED
Method: as §1

Sequence of Egl nine homolog 1 (Q9GZT9 whole entry): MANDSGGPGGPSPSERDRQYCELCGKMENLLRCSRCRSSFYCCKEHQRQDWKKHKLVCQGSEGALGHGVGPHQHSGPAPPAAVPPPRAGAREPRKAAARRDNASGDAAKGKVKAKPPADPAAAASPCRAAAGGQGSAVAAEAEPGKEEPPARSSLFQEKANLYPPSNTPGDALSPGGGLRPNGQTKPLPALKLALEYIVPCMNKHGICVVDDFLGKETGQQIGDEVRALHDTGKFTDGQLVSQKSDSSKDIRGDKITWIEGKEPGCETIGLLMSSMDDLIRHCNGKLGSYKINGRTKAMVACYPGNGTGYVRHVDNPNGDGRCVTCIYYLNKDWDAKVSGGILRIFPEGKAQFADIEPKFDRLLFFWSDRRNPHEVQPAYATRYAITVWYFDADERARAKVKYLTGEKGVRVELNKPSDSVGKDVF

Row | Compound | IC50 [1] | IC50 [2] | IC50 [3]
1 | CC(=O)N[C@@H](Cc1ccccc1)C(=O)N[C@H](Cc1ccccc1)C(=O)NCc1ccc2c(c1)c(O)c(C(=O)NCC(=O)O)c(=O)n2C [PHD Inhibitor, 12{2,5,2}] | 0.0448 µM | 0.0076 µM | 0.0089 µM
2 | CC(C)C[C@@H](NC(=O)C(C)(C)C)C(=O)N[C@H](Cc1ccccc1)C(=O)NCc1ccc2c(c1)c(O)c(C(=O)NCC(=O)O)c(=O)n2C [PHD Inhibitor, 12{2,6,4}] | 0.113 µM | 0.0145 µM | 0.0168 µM
3 | Cn1c(=O)c(C(=O)NCC(=O)O)c(O)c2cc(CNC(=O)[C@H](Cc3ccccc3)NC(=O)[C@H](Cc3ccccc3)NC(=O)CCN3CCOCC3)ccc21 [PHD Inhibitor, 12{1,5,3}] | 2.92 µM | 0.095 µM | 0.165 µM
4 | CC(=O)N[C@@H](Cc1ccc2ccccc2c1)C(=O)N[C@@H](Cc1ccccc1)C(=O)NCc1ccc2c(c1)c(O)c(C(=O)NCC(=O)O)c(=O)n2C [PHD Inhibitor, 12{1,1,2}] | 0.035 µM | 0.0043 µM | 0.0045 µM
5 | Cn1c(=O)c(C(=O)NCC(=O)O)c(O)c2cc(CNC(=O)[C@@H](Cc3ccccc3)NC(=O)C[C@H](Cc3ccccc3)NC(=O)c3ccccc3)ccc21 [PHD Inhibitor, 12{2,3,1}] | 1.56 µM | 0.049 µM | 0.04 µM
6 | Cn1c(=O)c(C(=O)NCC(=O)O)c(O)c2cc(CNC(=O)[C@@H](Cc3ccccc3)NC(=O)[C@@H](Cc3ccccc3)NC(=O)c3ccccc3)ccc21 [PHD Inhibitor, 12{2,4,1}] |  | 0.022 µM and 0.0085 µM | 0.02 µM and 0.0053 µM
7 | Cn1c(=O)c(C(=O)NCC(=O)O)c(O)c2cc(CNC(=O)[C@@H](Cc3ccccc3)NC(=O)[C@@H](Cc3ccc4ccccc4c3)NC(=O)C(C)(C)C)ccc21 [PHD Inhibitor, 12{2,1,4}] | 0.307 µM | 0.0608 µM | 0.0188 µM
8 | Cn1c(=O)c(C(=O)NCC(=O)O)c(O)c2cc(CNC(=O)[C@@H](Cc3ccccc3)NC(=O)[C@@H](Cc3ccccc3)NC(=O)C(C)(C)C)ccc21 [PHD Inhibitor, 12{2,3,4}] | 0.0864 µM and 0.104 µM | 0.0129 µM and 0.0146 µM | 0.0126 µM and 0.0132 µM
9 | CC(C)C[C@H](NC(=O)[C@H](Cc1cccc2ccccc12)NC(=O)C(C)(C)C)C(=O)NCc1ccc2c(c1)c(O)c(C(=O)NCC(=O)O)c(=O)n2C [PHD Inhibitor, 12{3,1,4}] | 1.1 µM | 0.032 µM | 0.077 µM
10 | CC(=O)N[C@H](Cc1ccc2ccccc2c1)C(=O)N[C@H](Cc1ccccc1)C(=O)NCc1ccc2c(c1)c(O)c(C(=O)NCC(=O)O)c(=O)n2C [PHD Inhibitor, 12{2,1,2}] | 0.0938 µM | 0.0135 µM | 0.0064 µM

Second part, the compound after the results:

Row | IC50 [1] | IC50 [2] | IC50 [3] | Compound
11 | 0.546 µM |  |  | CC(=O)NCc1ccc2c(c1)c(O)c(C(=O)NCC(=O)O)c(=O)n2C [PHD Inhibitor, 5]
12 | 0.293 µM |  |  | CC(=O)NCC(=O)NCc1ccc2c(c1)c(O)c(C(=O)NCC(=O)O)c(=O)n2C [PHD Inhibitor, 8{4}]
13 | 0.0675 µM | 0.011 µM | 0.0162 µM | CC(=O)N[C@@H](CC(C)C)C(=O)N[C@H](Cc1ccccc1)C(=O)NCc1ccc2c(c1)c(O)c(C(=O)NCC(=O)O)c(=O)n2C [PHD Inhibitor, 12{2,6,2}]
14 | 0.0419 µM | 0.0051 µM | 0.0135 µM | CC(=O)N[C@@H](Cc1ccc2ccccc2c1)C(=O)NCC(=O)NCc1ccc2c(c1)c(O)c(C(=O)NCC(=O)O)c(=O)n2C [PHD Inhibitor, 12{4,1,2}]
15 | 0.0374 µM and 0.0902 µM | 0.0072 µM and 0.0122 µM | 0.0117 µM and 0.0135 µM | CC(=O)N[C@H](Cc1ccccc1)C(=O)N[C@H](Cc1ccccc1)C(=O)NCc1ccc2c(c1)c(O)c(C(=O)NCC(=O)O)c(=O)n2C [PHD Inhibitor, 12{2,3,2}]
16 | 0.265 µM |  |  | CC(=O)N[C@@H](CO)C(=O)NCc1ccc2c(c1)c(O)c(C(=O)NCC(=O)O)c(=O)n2C [PHD Inhibitor, 8{5}]
17 | 0.112 µM |  |  | CC(=O)N[C@H](Cc1ccccc1)C(=O)NCc1ccc2c(c1)c(O)c(C(=O)NCC(=O)O)c(=O)n2C [PHD Inhibitor, 8{2}]
18 | 0.138 µM |  |  | CC(=O)N[C@@H](CC(=O)O)C(=O)NCc1ccc2c(c1)c(O)c(C(=O)NCC(=O)O)c(=O)n2C [PHD Inhibitor, 8{6}]
19 | 0.409 µM |  |  | CC(=O)N[C@@H](CCCCN)C(=O)NCc1ccc2c(c1)c(O)c(C(=O)NCC(=O)O)c(=O)n2C [PHD Inhibitor, 8{7}]
20 | 0.482 µM |  |  | CC(=O)N[C@@H](Cc1ccccc1)C(=O)NCc1ccc2c(c1)c(O)c(C(=O)NCC(=O)O)c(=O)n2C [PHD Inhibitor, 8{1}]
21 | 0.521 µM |  |  | CC(=O)N[C@H](CC(C)C)C(=O)NCc1ccc2c(c1)c(O)c(C(=O)NCC(=O)O)c(=O)n2C [PHD Inhibitor, 8{3}]
